In US10166241B2, “Combination Therapy III” (TURUN YLIOPISTO, priority 2012, dated 2019):

Assays:
T98G glioblastoma cells [1] = test: Apoptosis assay by sub-G0/G1 fraction estimation (apoptotic nuclear fragmentation); type: cell-based, human; conditions: T98G cells transfected with PME-1 specific dsRNA (so in the source)
Method: Apoptosis Assay by Sub-G0/G1 Fraction Estimation: […] After 24 hrs of treatment, both floating and adherent cells were harvested by centrifugation. […] The flow cytometric analysis of PI stained nuclei was performed and the recorded data was analyzed using a FACScan flow cytometer and software (Becton Dickinson) respectively. […] The treatments were given 48 hrs after transfection. Following 24 hrs of drug treatment the cells were lysed in hypotonic buffer, and their nuclei were stained with propidium iodide. The stained cell lysates were analysed to estimate the sub-G0/G1 fraction of fragmented nuclei by flow cytometry (FACS) (FIG. 1B).

[2] = system: U87MG-luciferase glioblastoma cells; test: Colony formation assay in U87MG-luciferase cells; type: cell-based; conditions: HDAC4 siRNA 48 hrs, then drug 48 hrs (combination)
Excerpt: (§1) Cells plated in very low density (4-6×10^3) in 6-well plates were allowed to grow for about 7 days until they form small colonies. These cells were then transfected with Scrambled or HDAC4 siRNA using Lipofectamine RNAiMAX reagent (Invitrogen) according to the manufacturer's instructions. After 48 hrs, treatments were given with indicated concentration of chemical drugs for another 48 hrs. Cell colonies were washed with PBS, fixed with 3.7% formaldehyde and stained with 0.2% crystal violet solution (made in 10% ethanol) for 15 minutes at room temperature each. Excess stain was removed by repeated washings with PBS. Plates were dried and pictures were taken with Epson perfection V700 scanner and analysed with ImageJ.
(§2) The efficacy of the selected potent drugs was then tested by colony formation assay in […] T98G, and highly-tumorigenic U87MG-luciferase (luciferase expressing U87MG cells) glioblastoma cell lines. For this experiment, the cells were grown in 6-well plates in low density until the formation of small colonies which were then transfected with Scrambled or HDAC4 specific siRNA for 48 hrs followed by treatment with STS, PKC412, K252a, UCN-01 and CEP-701 at the indicated concentrations for another 48 hrs.

T98G glioblastoma cells [3] = test: Colony formation assay in T98G cells; type: cell-based, human
Excerpt: as §1, §2

[4] = HDAC4.2 siRNA transfected cells treated with drug

SMILES	Potentiation % (Scale) (T98G glioblastoma cells [1]; drug 5 μM)	Potentiation % (amount of apoptotic nuclear fragmentation) (T98G glioblastoma cells [1]; drug 5 μM)	other results
O=C1NC(=O)c2c1c1c3ccccc3[nH]c1c1[nH]c3ccccc3c21 [Arcyriaflavin A, 12,13-Dihydro-5H-indolo [2,3-a] pyrrolo[3,4-c] carbazole-5,7(6H)-dione]	− ((−) 0-20%)	5-10%	–
C[C@]12O[C@H](C[C@]1(O)CO)n1c3ccccc3c3c4c(c5c6ccccc6n2c5c31)CNC4=O [CEP-701, (9S,10S,12R)-2,3,9,10,11,12-Hexahydro-10-hydroxy-10-(hydroxyme-thyl)-9-methyl-9,12-epoxy-1H-diindolo [1,2,3-fg:3′,2′,1′-kl] pyrrolo[3,4-i][1, 6] benzo di-azocin-1-one]	+++ ((+++) 60-80%)	70-80%	colony growth [2]: less effective; Potentiation % (Scale) (T98G glioblastoma cells [1]; drug 3.5 μM): ++ ((++) 40-60%); Potentiation % (amount of apoptotic nuclear fragmentation) (T98G glioblastoma cells [1]; drug 3.5 μM): 40-50%
Cn1cc(C2=C(c3cn(C4CCN(Cc5ccccn5)CC4)c4ccccc34)C(=O)NC2=O)c2ccccc21 [Enzastaurin, 3-(1-Methyl-1H-indol-3-yl)-4-(1-(1-(2-pyridinylme-thyl)-4-piperidinyl)-1H-indol-3-yl)-1H-pyrrole-2,5-dione]	− ((−) 0-20%)	10-20%	–
Cn1c2ccccc2c2c3c(c4c5ccccc5n(CCC#N)c4c21)CNC3=O [GÖ-6976, 12-(2-Cyanoethyl)-6,7,12,13-tetrahydro-13-methyl-5-oxo-5H-indolo[2,3-a]pyrrolo[3,4-c]carbazole]	− ((−) 0-20%)	10-20%	–
COC(=O)[C@@]1(O)C[C@H]2O[C@]1(C)n1c3ccccc3c3c4c(c5c6ccccc6n2c5c31)C(=O)NC4 [K252a, (9S,10R,12R)-2,3,9,10,11,12-Hexahydro-10-hydroxy-9-methyl-1-oxo-9,12-epoxy-1H-diindolo [1,2,3-fg:3′,2′,1′-kl] pyrrolo[3,4-i][1,6] benzodi-azocine-10-carboxylic acid methyl ester]	++++ ((++++) 80-100%)	80-90%	colony growth [2]: very potent in reducing the colony growth; colony growth (T98G glioblastoma cells [3]; HDAC4 siRNA 48 hrs, then drug 48 hrs (combination)): very potent in reducing the colony growth; colony growth (T98G glioblastoma cells [3]; [4]): reduction in the colony growth; Potentiation % (Scale) (T98G glioblastoma cells [1]; drug 3.5 μM): ++ ((++) 40-60%); Potentiation % (amount of apoptotic nuclear fragmentation) (T98G glioblastoma cells [1]; drug 3.5 μM): 50-60%
O=C1NCc2c1c1c3ccccc3[nH]c1c1[nH]c3ccccc3c21 [K252c, 6,7,12,13-Tetrahydro-5H-indolo[2,3-a]pyrrolo[3,4-c] carbazol-5-one]	− ((−) 0-20%)	10-20%	–
CO[C@@H]1[C@H](N(C)C(=O)c2ccccc2)C[C@H]2O[C@@H]1n1c3ccccc3c3c4c(c5c6ccccc6n2c5c31)C(=O)NC4 [PKC412, [9S-(9α,10β,11β, 13α)]-N-(2,3,10, 11,12,13-Hexahydro-10-methoxy-9-methyl-1-oxo-9,13-epoxy-1 H,9H-diindolo [1,2,3-gh:3′,2′,1′-lm]pyrrolo [3,4-j][1,7]benzodiazonin-11-yl)-N-methyl ben-zamide]	++ ((++) 40-60%)	50-60%	colony growth (T98G glioblastoma cells [3]; [4]): reduction in the colony growth
COC1C(CO)OC(n2c3c(Cl)cccc3c3c4c(c5c6cccc(Cl)c6[nH]c5c32)C(=O)NC4=O)C(O)C1O (stereo not drawn) [Rebeccamycin, 5h-indolo(2,3-a)pyrrolo(3,4-c)carbazole-5,7(6h)-dione,1,11-dichloro-12,13-dihy;dro-12-(4-o-methyl-beta-d-glucopyra-nosyl)]	− ((−) 0-20%)	5-10%	–
O=C1NC(=O)c2c1c1c3ccccc3n3c1c1c2c2ccccc2n1C1CCC3O1 [SB-218078, 9,10,11,12-Tetrahydro-9,12-epoxy-1H-diindolo [1,2.3-fg:3′,2′,1′-kl] pyrrolo [3,4-i][1,6] benzodi-azocine-1,3(2H)-dione]	+ ((+) 20-40%)	20-30%	–
CN[C@@H]1C[C@H]2O[C@@](C)([C@@H]1OC)n1c3ccccc3c3c4c(c5c6ccccc6n2c5c31)C(=O)NC4 [Staurosporine, [9S-(9α,10β,11β, 13α)]-2,3,10,11, 12,13-Hexa-hydro-10-methoxy-9-methyl-11-(methylamino)-9,13-epoxy-1H,9H-diindolo [1,2,3-gh:3′,2′,1′-lm] pyrrolo [3,4-j][1,7] benzo diazonin-1-one]	–	–	colony growth (T98G glioblastoma cells [3]; [4]): reduction in the colony growth; Potentiation % (Scale) (T98G glioblastoma cells [1]; drug 50 nM): + ((+) 20-40%); Potentiation % (amount of apoptotic nuclear fragmentation) (T98G glioblastoma cells [1]; drug 50 nM): 30-40%
CN[C@@H]1C[C@H]2O[C@@](C)([C@@H]1OC)n1c3ccccc3c3c4c(c5c6ccccc6n2c5c31)C(=O)N[C@H]4O [UCN-01, (9S)-2,3,10,11,12,13-Hexahydro-3α-hydroxy-10α-methoxy-9-methyl-11α-methyl amino-9β,13β-epoxy-1H,9H-diindolo [1,2,3-gh:3′,2′,1′-lm] pyrrolo [3,4-j][1,7] benzo diazonin-1-one]	–	–	Potentiation % (Scale) (T98G glioblastoma cells [1]; drug 1.5 μM): + ((+) 20-40%); Potentiation % (amount of apoptotic nuclear fragmentation) (T98G glioblastoma cells [1]; drug 1.5 μM): 20-30%; Potentiation % (Scale) (T98G glioblastoma cells [1]; drug 2.5 μM): +++ ((+++) 60-80%); Potentiation % (amount of apoptotic nuclear fragmentation) (T98G glioblastoma cells [1]; drug 2.5 μM): 70-80%
